Data as given in patent US11807693B2 (priority 2014, dated 2023).
Like-named read-outs stand apart in the source and are kept apart here. Starred links: 1 amine or outer side, 2 acyl side, 3 side chain; linkers in the order of their positions; H or OH if unused. Non-standard residues stand in square brackets, D forms with d. Residues, ends and D or L forms follow the SMILES beside them. ξ: configuration not given here. *: point of attachment. dBip = N[C@H](Cc1ccc(-c2ccccc2)cc1)C(=O)O; Oic = O=C(O)[C@@H]1C[C@@H]2CCCC[C@@H]2N1; Phe(4-Cl) = N[C@@H](Cc1ccc(Cl)cc1)C(=O)O; Phe(4-I) = N[C@@H](Cc1ccc(I)cc1)C(=O)O; γGlu = O=C(O)[C@H](CCC(=O)[*:2])N[*:1]; NMeR = CN[C@@H](CCCNC(=N)N)C(=O)O; Tridecanoyl = CCCCCCCCCCCCC(=O)*; hArg = N=C(N)NCCCC[C@H](N)C(=O)O; Cha = N[C@@H](CC1CCCCC1)C(=O)O; NMeL = CN[C@@H](CC(C)C)C(=O)O; αMeL = CC(C)C[C@](C)(N)C(=O)O; ξαMeL = CC(C)CC(C)(N)C(=O)O; Nle = CCCC[C@H](N)C(=O)O; ξαMeP = CC1(C(=O)O)CCCN1; ξβ3hV = CC(C)C(N)CC(=O)O; AEEA = NCCOCCOCC(=O)O; Aib = CC(C)(N)C(=O)O

Key:
human APJ receptor = target: T1, human APJ receptor (Homo sapiens, UniProt P35414); assay: [35S] GTPγS assay, human APJ receptor; type: biochemical
T1 construct: expressed in transfected cells
T1 sequence (P35414 1-380): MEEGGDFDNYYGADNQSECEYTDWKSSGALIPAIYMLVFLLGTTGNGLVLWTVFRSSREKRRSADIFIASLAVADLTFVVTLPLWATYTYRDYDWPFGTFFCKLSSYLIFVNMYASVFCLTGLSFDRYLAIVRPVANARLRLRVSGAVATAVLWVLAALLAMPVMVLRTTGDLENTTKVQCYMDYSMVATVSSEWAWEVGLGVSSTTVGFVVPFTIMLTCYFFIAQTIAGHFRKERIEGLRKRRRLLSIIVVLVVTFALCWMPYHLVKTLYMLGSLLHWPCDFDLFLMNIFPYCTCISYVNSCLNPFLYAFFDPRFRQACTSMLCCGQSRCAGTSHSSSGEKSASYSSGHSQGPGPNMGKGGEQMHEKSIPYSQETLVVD

[1] = In vitro stability in rat plasma; type: in vitro ADME
Outline: (§1)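 Stability was followed for 4 hr at 37° C. after spiking peptides (5 μM final) into rat plasma and tissue homogenates. Methanol quench with internal standard preceded high resolution LC-MS.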

[2] = In vitro stability in rat liver homogenate; type: in vitro ADME; conditions: tissue homogenate
Outline: as §1

rat APJ receptor = target: T2, rat APJ receptor (Rattus norvegicus, UniProt Q9JHG3); assay: [35S] GTPγS assay, rat APJ receptor; type: biochemical
T2 construct: expressed in transfected cells
T2 sequence (Q9JHG3 1-377): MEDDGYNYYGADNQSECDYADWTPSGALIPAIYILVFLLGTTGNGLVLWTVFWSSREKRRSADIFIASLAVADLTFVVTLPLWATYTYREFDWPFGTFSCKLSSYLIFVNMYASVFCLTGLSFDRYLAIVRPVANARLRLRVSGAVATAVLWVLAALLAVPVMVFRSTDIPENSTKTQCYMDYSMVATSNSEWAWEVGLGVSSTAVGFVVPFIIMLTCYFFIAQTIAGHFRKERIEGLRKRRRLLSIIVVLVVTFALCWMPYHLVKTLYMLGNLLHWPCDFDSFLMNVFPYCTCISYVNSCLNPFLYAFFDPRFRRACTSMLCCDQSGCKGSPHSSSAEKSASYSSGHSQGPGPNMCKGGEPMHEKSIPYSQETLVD
Method: The membranes were incubated with modified peptides in the assay buffer. […] Bound [^35S] GTPγS was separated from free radiolabel by filtration. The filter bound radioactivity was determined by liquid scintillation counting.

[3] = In vitro stability in rat kidney homogenate; type: in vitro ADME; conditions: rat, tissue homogenate
Outline: as §1

| SMILES | EC50 (human APJ receptor; human APJ receptor) | remaining at 4 h, 5 μM [1] | remaining at 4 h, 5 μM [2] | EC50 (rat APJ receptor; rat APJ receptor, read-out: EC50 Rat APJ Receptor) | remaining at 4 h, 5 μM [3] | EC50 (human APJ receptor; Table 16) | EC50 (rat APJ receptor; Table 16, read-out: EC50 Rat APJ Receptor) |
| --- | --- | --- | --- | --- | --- | --- | --- |
| CCCC[C@H](NC(=O)[C@@H]1C[C@@H]2CCCC[C@@H]2N1C(=O)CNC(=O)[C@H](CCCCN)NC(=O)[C@H](Cc1c[nH]cn1)NC(=O)[C@H](CO)NC(=O)[C@H](CC1CCCCC1)NC(=O)[C@H](CCCNC(=N)N)N(C)C(=O)[C@@H]1CCCN1C(=O)[C@H](CCCCNC(=N)N)NC(=O)[C@H](CCC(N)=O)NC(C)=O)C(=O)N1CCC[C@H]1C(=O)N[C@@H](Cc1ccc(Cl)cc1)C(=O)O [compound 61] (Ac-Q[hArg]P[NMeR][Cha]SHKG[Oic][Nle]P[Phe(4-Cl)]-OH) | 0.159 nM | 27.9% | < 1% | 0.189 nM | 7.58% |  |  |
| CCCCCCCCCCCCC(=O)N[C@@H](CCC(=O)NCCOCCOCC(=O)NCCOCCOCC(=O)N[C@@H](CCCC)C(=O)N[C@H](CCCNC(=N)N)C(=O)N[C@@H](CCC(N)=O)C(=O)N[C@@H](CCCCNC(=N)N)C(=O)N1CCC[C@H]1C(=O)N[C@H](CCCNC(=N)N)C(=O)N(C)[C@@H](CC(C)C)C(=O)N[C@@H](CO)C(=O)N[C@@H](Cc1c[nH]cn1)C(=O)N[C@@H](CCCCN)C(=O)NCC(=O)N1[C@H](C(=O)N[C@@H](Cc2ccc(I)cc2)C(=O)N2CCC[C@H]2C(=O)N[C@H](Cc2ccc(-c3ccccc3)cc2)C(=O)O)C[C@@H]2CCCC[C@@H]21)C(=O)O [compound 314] ({Tridecanoyl-γGlu-AEEA-AEEA}-[Nle][dR]Q[hArg]P[dR][NMeL]SHKG[Oic][Phe(4-I)]P[dBip]-OH) | 2.77 nM | > 90% | 77.5% |  | 71% |  |  |
| CCCCCCCCCCCCC(=O)N[C@@H](CCC(=O)NCCOCCOCC(=O)NCCOCCOCC(=O)N[C@@H](CCCC)C(=O)N[C@H](CCCNC(=N)N)C(=O)N[C@@H](CCC(N)=O)C(=O)N[C@@H](CCCCNC(=N)N)C(=O)N1CCC[C@H]1C(=O)N[C@H](CCCNC(=N)N)C(=O)N(C)[C@@H](CC(C)C)C(=O)N[C@@H](C)C(=O)N[C@@H](Cc1c[nH]cn1)C(=O)N[C@@H](CCCCN)C(=O)NCC(=O)N1[C@H](C(=O)N[C@@H](Cc2ccc(I)cc2)C(=O)N2CCC[C@H]2C(=O)N[C@H](Cc2ccc(-c3ccccc3)cc2)C(=O)O)C[C@@H]2CCCC[C@@H]21)C(=O)O [compound 320] ({Tridecanoyl-γGlu-AEEA-AEEA}-[Nle][dR]Q[hArg]P[dR][NMeL]AHKG[Oic][Phe(4-I)]P[dBip]-OH) | 17.8 nM | > 90% | 86.5% |  | 73.4% |  |  |
| CCCCCCCCCCCCC(=O)N[C@@H](CCC(=O)NCCOCCOCC(=O)NCCOCCOCC(=O)N[C@@H](CCC(N)=O)C(=O)N[C@@H](CCCNC(=N)N)C(=O)N1CCC[C@H]1C(=O)N[C@@H](CCCCNC(=N)N)C(=O)N[C@@](C)(CC(C)C)C(=O)N[C@@H](CO)C(=O)N[C@@H](Cc1c[nH]cn1)C(=O)N[C@@H](CCCCN)C(=O)NCC(=O)N1[C@H](C(=O)N[C@@H](CCCC)C(=O)N2CCC[C@H]2C(=O)N[C@@H](Cc2ccc(Cl)cc2)C(=O)O)C[C@@H]2CCCC[C@@H]21)C(=O)O [compound 360] ({Tridecanoyl-γGlu-AEEA-AEEA}-QRP[hArg][αMeL]SHKG[Oic][Nle]P[Phe(4-Cl)]-OH) |  | 81.5% | 2.5% |  | 2% | 0.0519 nM |  |
| CCCCCCCCCCCCC(=O)N[C@@H](CCC(=O)NCCOCCOCC(=O)NCCOCCOCC(=O)N[C@H](CCC(N)=O)C(=O)N[C@@H](CCCNC(=N)N)C(=O)N1CCC[C@H]1C(=O)N(C)[C@@H](CCCNC(=N)N)C(=O)N[C@@](C)(CC(C)C)C(=O)N[C@@H](CO)C(=O)N[C@@H](Cc1c[nH]cn1)C(=O)N[C@@H](CCCCN)C(=O)NCC(=O)N1[C@H](C(=O)N[C@@H](CCCC)C(=O)N2CCC[C@H]2C(=O)N[C@@H](Cc2ccc(Cl)cc2)C(=O)O)C[C@@H]2CCCC[C@@H]21)C(=O)O [compound 386] ({Tridecanoyl-γGlu-AEEA-AEEA}-[dQ]RP[NMeR][αMeL]SHKG[Oic][Nle]P[Phe(4-Cl)]-OH) |  | 58% | 6% |  | 4% | 0.0934 nM |  |
| CCCCCCCCCCCCC(=O)N[C@@H](CCC(=O)NCCOCCOCC(=O)NCCOCCOCC(=O)N[C@@H](CCC(N)=O)C(=O)N[C@@H](CCCNC(=N)N)C(=O)N1CCC[C@H]1C(=O)N(C)[C@@H](CCCNC(=N)N)C(=O)N[C@@](C)(CC(C)C)C(=O)N[C@@H](CO)C(=O)N[C@@H](Cc1c[nH]cn1)C(=O)N[C@@H](CCCCN)C(=O)NCC(=O)N1[C@H](C(=O)N[C@@H](CCCC)C(=O)N[C@@H](Cc2ccc(Cl)cc2)C(=O)O)C[C@@H]2CCCC[C@@H]21)C(=O)O [compound 389] ({Tridecanoyl-γGlu-AEEA-AEEA}-QRP[NMeR][αMeL]SHKG[Oic][Nle][Phe(4-Cl)]-OH) |  | < 1% | < 1% |  | 4% | 0.196 nM |  |
| CCCCCCCCCCCCC(=O)N[C@@H](CCC(=O)NCCOCCOCC(=O)NCCOCCOCC(=O)N[C@@H](CCC(N)=O)C(=O)N[C@@H](CCC(=O)O)C(=O)N1CCC[C@H]1C(=O)N(C)[C@@H](CCCNC(=N)N)C(=O)N[C@@H](CC(C)C)C(=O)N[C@@H](CO)C(=O)N[C@@H](Cc1c[nH]cn1)C(=O)N[C@@H](CCCCN)C(=O)NCC(=O)N1CCC[C@H]1C(=O)N[C@@H](CCCC)C(=O)N1CCC[C@H]1C(=O)N[C@@H](Cc1ccc(Cl)cc1)C(=O)O)C(=O)O [compound 475] ({Tridecanoyl-γGlu-AEEA-AEEA}-QEP[NMeR]LSHKGP[Nle]P[Phe(4-Cl)]-OH) |  | 33% | < 1% |  |  | 10.3 nM | 35.8 nM |
| CCCCCCCCCCCCC(=O)N[C@@H](CCC(=O)NCCOCCOCC(=O)NCCOCCOCC(=O)N[C@@H](CCC(N)=O)C(=O)N[C@@H](CCCNC(=N)N)C(=O)N1CCC[C@H]1C(=O)N[C@@H](CCC(=O)O)C(=O)N[C@@H](CC(C)C)C(=O)N[C@@H](CO)C(=O)N[C@@H](Cc1c[nH]cn1)C(=O)N[C@@H](CCCCN)C(=O)NCC(=O)N1CCC[C@H]1C(=O)N[C@@H](CCCC)C(=O)N1CCC[C@H]1C(=O)N[C@@H](Cc1ccc(Cl)cc1)C(=O)O)C(=O)O [compound 477] ({Tridecanoyl-γGlu-AEEA-AEEA}-QRPELSHKGP[Nle]P[Phe(4-Cl)]-OH) |  | 64% | < 1% |  | 2% | 0.423 nM |  |
| CCCCCCCCCCCCC(=O)N[C@@H](CCC(=O)NCCOCCOCC(=O)NCCOCCOCC(=O)N[C@H](CCC(N)=O)C(=O)N[C@@H](CCCNC(=N)N)C(=O)N1CCC[C@H]1C(=O)N[C@@H](CCC(=O)O)C(=O)N[C@@H](CC1CCCCC1)C(=O)N[C@@H](CO)C(=O)N[C@@H](Cc1c[nH]cn1)C(=O)N[C@@H](CCCCN)C(=O)NCC(=O)N1[C@H](C(=O)N[C@@H](CCCC)C(=O)NC(C)(C)C(=O)N[C@@H](Cc2ccc(Cl)cc2)C(=O)O)C[C@@H]2CCCC[C@@H]21)C(=O)O [compound 526] ({Tridecanoyl-γGlu-AEEA-AEEA}-[dQ]RPE[Cha]SHKG[Oic][Nle][Aib][Phe(4-Cl)]-OH) |  | > 90% | 5% |  | < 1% | 2.02 nM |  |
| CCCCCCCCCCCCC(=O)N[C@@H](CCC(=O)NCCOCCOCC(=O)NCCOCCOCC(=O)NC(CC(=O)N[C@@H](CCCNC(=N)N)C(=O)N1CCCC1(C)C(=O)N[C@@H](CCCCNC(=N)N)C(=O)NC(C)(CC(C)C)C(=O)N[C@@H](CO)C(=O)N[C@@H](Cc1c[nH]cn1)C(=O)N[C@@H](CCCCN)C(=O)NCC(=O)N1[C@H](C(=O)N[C@@H](CCCC)C(=O)N2CCCC2(C)C(=O)N[C@@H](Cc2ccc(Cl)cc2)C(=O)O)C[C@@H]2CCCC[C@@H]21)C(C)C)C(=O)O (stereo partly drawn) [compound 552] ({Tridecanoyl-γGlu-AEEA-AEEA}-[ξβ3hV]R[ξαMeP][hArg][ξαMeL]SHKG[Oic][Nle][ξαMeP][Phe(4-Cl)]-OH) | 1.95 nM | > 90% | 40% |  | 18% |  |  |
